Key:
Test in all cases: relative viability (nuclei count vs DMSO), 5 days (fraction); higher = more cells survive
[1] = test system: A-427
Outline: (§1)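 Lung cancer cell lines were pin-tool dosed in 1536-well plates on the day after seeding, with either a lone drug or a fixed anchor-drug dose plus five library-drug doses (not always all listed) in √10 steps. Nuclei were counted on 4× images after 5 days. Relative viability is the ratio of treated-well to vehicle-well nuclei counts, with each value a median of duplicate plates.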

[2] = test system: CAL-12T
Outline: as §1

[3] = test system: COR-L 105
Outline: as §1

[4] = test system: EMC-BAC-2
Outline: as §1

[5] = test system: HARA
Outline: as §1

[6] = test system: HCC-366
Outline: as §1

[7] = test system: HCC-827
Outline: as §1

[8] = test system: HOP-62
Outline: as §1

[9] = test system: LCLC-103H
Outline: as §1

[10] = test system: NCI-H1395
Outline: as §1

[11] = test system: NCI-H1437
Outline: as §1

[12] = test system: NCI-H1755
Outline: as §1

[13] = test system: NCI-H1792
Outline: as §1

[14] = test system: NCI-H1915
Outline: as §1

[15] = test system: NCI-H2009
Outline: as §1

[16] = test system: NCI-H2228
Outline: as §1

[17] = test system: NCI-H23
Outline: as §1

[18] = test system: NCI-H460
Outline: as §1

[19] = test system: NCI-H727
Outline: as §1

[20] = test system: SK-LU-1
Outline: as §1

[21] = test system: SW 1573
Outline: as §1

Question: What does the source list for `Cc1sc2c(c1C)C(c1ccc(Cl)cc1)=N[C@@H](CC(=O)OC(C)(C)C)c1nnc(C)n1-2` [JQ1] + Cc1nc(NC(=O)N2CCC[C@H]2C(N)=O)sc1-c1ccnc(C(C)(C)C(F)(F)F)c1 [Alpelisib] (partner 2 µM)?
Answer: relative viability ([1]; first compound 0.04 µM): 1.15; relative viability ([1]; first compound 0.1265 µM): 1.05; relative viability ([1]; first compound 0.4 µM): 1.11; relative viability ([1]; first compound 1.265 µM): 0.967; relative viability ([1]; first compound 4 µM): 0.731; relative viability ([2]; first compound 0.04 µM): 1.08; relative viability ([2]; first compound 0.1265 µM): 1.42; relative viability ([2]; first compound 0.4 µM): 0.919; relative viability ([2]; first compound 1.265 µM): 0.325; relative viability ([2]; first compound 4 µM): 0.328; relative viability ([3]; first compound 0.04 µM): 0.799; relative viability ([3]; first compound 0.1265 µM): 0.642; relative viability ([3]; first compound 0.4 µM): 0.421; relative viability ([3]; first compound 1.265 µM): 0.252; relative viability ([3]; first compound 4 µM): 0.255; relative viability ([4]; first compound 0.04 µM): 0.663; relative viability ([4]; first compound 0.1265 µM): 0.749; relative viability ([4]; first compound 0.4 µM): 0.576; relative viability ([4]; first compound 1.265 µM): 0.439; relative viability ([4]; first compound 4 µM): 0.386; relative viability ([5]; first compound 0.04 µM): 0.915; relative viability ([5]; first compound 0.1265 µM): 0.598; relative viability ([5]; first compound 0.4 µM): 0.283; relative viability ([5]; first compound 1.265 µM): 0.266; relative viability ([5]; first compound 4 µM): 0.156; relative viability ([6]; first compound 0.04 µM): 0.405; relative viability ([6]; first compound 0.4 µM): 0.404; relative viability ([6]; first compound 1.265 µM): 0.233; relative viability ([6]; first compound 4 µM): 0.215; relative viability ([7]; first compound 0.04 µM): 0.929; relative viability ([7]; first compound 0.4 µM): 0.672; relative viability ([7]; first compound 1.265 µM): 1.07; relative viability ([7]; first compound 4 µM): 1.11; relative viability ([8]; first compound 0.04 µM): 1.2; relative viability ([8]; first compound 0.1265 µM): 0.728; relative viability ([8]; first compound 0.4 µM): 0.332; relative viability ([8]; first compound 1.265 µM): 0.182; relative viability ([8]; first compound 4 µM): 0.09; relative viability ([9]; first compound 0.04 µM): 0.957; relative viability ([9]; first compound 0.1265 µM): 0.828; relative viability ([9]; first compound 0.4 µM): 0.751; relative viability ([9]; first compound 1.265 µM): 0.572; relative viability ([10]; first compound 0.04 µM): 1.03; relative viability ([10]; first compound 0.1265 µM): 0.856; relative viability ([10]; first compound 0.4 µM): 0.813; relative viability ([10]; first compound 1.265 µM): 0.495; relative viability ([10]; first compound 4 µM): 0.404; relative viability ([11]; first compound 0.04 µM): 0.871; relative viability ([11]; first compound 0.1265 µM): 0.803; relative viability ([11]; first compound 0.4 µM): 0.515; relative viability ([11]; first compound 1.265 µM): 0.284; relative viability ([11]; first compound 4 µM): 0.216; relative viability ([12]; first compound 0.04 µM): 0.916; relative viability ([12]; first compound 0.1265 µM): 0.918; relative viability ([12]; first compound 0.4 µM): 1.01; relative viability ([12]; first compound 1.265 µM): 0.623; relative viability ([12]; first compound 4 µM): 0.533; relative viability ([13]; first compound 0.04 µM): 0.702; relative viability ([13]; first compound 0.4 µM): 0.722; relative viability ([13]; first compound 1.265 µM): 0.411; relative viability ([13]; first compound 4 µM): 0.364; relative viability ([14]; first compound 0.04 µM): 1.05; relative viability ([14]; first compound 0.1265 µM): 0.94; relative viability ([14]; first compound 0.4 µM): 0.982; relative viability ([14]; first compound 1.265 µM): 0.613; relative viability ([14]; first compound 4 µM): 0.33; relative viability ([15]; first compound 0.04 µM): 1.09; relative viability ([15]; first compound 0.1265 µM): 0.968; relative viability ([15]; first compound 0.4 µM): 0.697; relative viability ([15]; first compound 1.265 µM): 0.32; relative viability ([15]; first compound 4 µM): 0.268; relative viability ([16]; first compound 0.04 µM): 0.644; relative viability ([16]; first compound 0.1265 µM): 0.602; relative viability ([16]; first compound 0.4 µM): 0.504; relative viability ([16]; first compound 1.265 µM): 0.497; relative viability ([16]; first compound 4 µM): 0.451; relative viability ([17]; first compound 0.04 µM): 0.62; relative viability ([17]; first compound 0.1265 µM): 0.726; relative viability ([17]; first compound 0.4 µM): 0.454; relative viability ([17]; first compound 1.265 µM): 0.292; relative viability ([17]; first compound 4 µM): 0.297; relative viability ([18]; first compound 0.04 µM): 0.47; relative viability ([18]; first compound 0.1265 µM): 0.344; relative viability ([18]; first compound 0.4 µM): 0.257; relative viability ([18]; first compound 1.265 µM): 0.0483; relative viability ([18]; first compound 4 µM): 0.0414; relative viability ([19]; first compound 0.04 µM): 0.525; relative viability ([19]; first compound 0.1265 µM): 0.668; relative viability ([19]; first compound 0.4 µM): 0.445; relative viability ([19]; first compound 1.265 µM): 0.231; relative viability ([19]; first compound 4 µM): 0.222; relative viability ([20]; first compound 0.04 µM): 1.11; relative viability ([20]; first compound 0.1265 µM): 0.586; relative viability ([20]; first compound 0.4 µM): 0.287; relative viability ([20]; first compound 1.265 µM): 0.167; relative viability ([20]; first compound 4 µM): 0.158; relative viability ([21]; first compound 0.04 µM): 0.808; relative viability ([21]; first compound 0.1265 µM): 0.702; relative viability ([21]; first compound 0.4 µM): 0.714; relative viability ([21]; first compound 1.265 µM): 0.439; relative viability ([21]; first compound 4 µM): 0.383

— the supplement of paper PMC10307832
